Experimental data as given in patent publication EP2759295A1, “Foam cell specific Liver X Receptor (LXR) alpha agonist, SIRT1 inhibitors as well as p300 inhibitors as pharmaceutically active agents” (Max-Planck-Gesellschaft zur Förderung der Wissenschaften …, priority 2013, dated 2014).
Where two headings read alike, the source gives them in different places.

Experiments:
[1] = molecular target: T1, LXRα ligand binding domain (LBD) (Homo sapiens, UniProt Q13133); assay: dual luciferase reporter gene assay with LXRα ligand binding domain in HEK-293 cells; type: cell-based
T1 construct: expressed in transfected cells; host or cells: HEK-293
T1 sequence (Q13133 164-447): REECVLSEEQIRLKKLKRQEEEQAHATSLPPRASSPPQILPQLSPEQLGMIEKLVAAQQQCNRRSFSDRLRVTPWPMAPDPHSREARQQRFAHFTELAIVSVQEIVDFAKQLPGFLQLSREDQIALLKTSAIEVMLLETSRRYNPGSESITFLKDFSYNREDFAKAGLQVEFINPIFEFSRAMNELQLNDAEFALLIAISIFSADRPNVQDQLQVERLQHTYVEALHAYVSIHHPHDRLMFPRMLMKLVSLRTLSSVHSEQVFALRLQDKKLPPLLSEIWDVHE
Protocol: The ligand binding domain (LBD) of LXRα (amino acids 164 to 447) or LXRβ (amino acids 154 to 461) was cloned into pBIND [Renilla/Amp] vector (Promega). Selection and amplification were performed in E-coli cells. Purification of the plasmids was performed with a plasmid purification kit (Qiagen). For transfection HEK-293 cells were plated in 96-well plates (TPP) at a density of 3.5 x 10^4 cells/well for 24 h. To investigate the ligand binding on LXRα ligand binding domain, 0.04 ng of renilla luciferase coding plasmide pGL4.75 (Promega), 0.04 ng of LXRα-LBD/GAL4-DBD plasmide and 80 ng of firefly luciferase coding plasmide pGL4.31 (Promega) were used in a total volume of 200 µL for each well. In LXRβ binding assay 40 ng of LXRβ-LBD/GAL4-DBD plasmide were applied in each transfection mix. Transfection was carried out for 4 h with Lipofectamine 2000 Transfection Reagent (Invitrogen) in Opti-MEM medium (Invitrogen). Ligand treatment was performed at different concentrations for 24 h. For lysis and detection dual-luciferase reporter gene assay system (Promega) and POLARstar Omega (BMG LABTECH) were used.

THP-1 macrophages [2] = assay: CellTiter-Glo viability assay in THP-1 macrophages; type: cell-based, human
Protocol: (§1) For generating macrophages differentiation was induced by 10^-8 M Phorbol 12-myristate 13-acetate (PMA) (Sigma-Aldrich) for 48 h. Ligand treatment of macrophages was performed for further 24 h. To induce foam cell formation macrophages were treated for additional 48 h with 100 µg/mL modified human oxidized low density lipoprotein (oxLDL) obtained from Source BioScience (RP-048). Ligand treatment was performed simultaneously with foam cell formation. Cholesterol loading and treatment was controlled with Oil Red O staining (Alfa Aeser). To investigate ligand induced effects on cell proliferation of THP-1 macrophages CellTiter-Glo Luminescent Cell Viability Assay (Promega) was utilized.

THP-1 macrophages [3] = assay: qPCR gene expression of LXRα target genes in THP-1 macrophages; type: cell-based, human; conditions: 10 µM
Protocol: as §1
(§2) Total RNA isolation and purification was performed by using the RNeasy Mini Kit (QIAGEN) and RNase-Free DNase Set (QIAGEN). cDNA was generated by reverse transcription using the High Capacity cDNA Reverse Transcription Kit (Applied Biosystems). Gene expression was quantified using the SYBR Green PCR Master Mix (Applied Biosystems) and ABI 7900HT Fast Real Time PCR System (Applied Biosystems). In each reaction 0.8 ng/µL cDNA and 0.2 µM primers were used. Gene expression was calculated with the ΔΔCt-method. β-Actin was used for normalisation.

foam cells [4] = assay: siRNA-mediated LXRα/β knockdown in foam cells with qPCR; type: cell-based, human; conditions: 10 µM ligand for 24 h
Protocol: Target specificity of ligand-dependent gene expression effects was investigated in siRNA-mediated LXRα and β-knockdown foam cells with subsequent qPCR or microarray analysis. Therefore, 2 x 10^5 THP-1 cells/well were differentiated in 24-well plate and induced to foam cells prior to knockdown as described above. Foam cells were transfected using TransIT-TKO transfection reagent (Mirus Bio), for combined knockdown with 15 nM LXRα Silencer Validated siRNA (Ambion, ID 5458) and 15 nM LXRβ Silencer Select Validated siRNA (Ambion, ID s14684) and with 30 nM LXRα or LXRβ for individual knockdowns, respectively. As control we used 30 nM Silencer Select Negative Control #1 (Ambion). Transfection was carried out for 48 h and followed by treatment with 10 µM ligand or vehicle control for 24 h.
as §2

macrophages [5] = assay: microarray genome-wide gene expression and GSEA in macrophages; type: cell-based, human; conditions: 10 µM
Protocol: Microarray analyses were performed according to instructions of Illumina's TotalPrep RNA Amplification Kit followed by hybridisation on HumanHT-12 v3 or HumanHT-12 v4 Expression BeadChips (illumina). Data analysis was performed with GenomeStudio V2011.1 (illumina). Differential expression analysis was performed on background-subtracted data with cubic spline normalization and Benjamini-Hochberg FDR correction. Significant data was considered to have a detection p-value of ≤ 0.01 and differential expression p-value of ≤ 0.05 according to Illumina's t-test error model. […] Bead array data were validated by quantitative real-time PCR. The Gene Distance Matrix was conducted in Euclidean space using the MeV 4.3 software tool [Saeed A.I. et al. Biotechniques (2003), 34, 374-378]. Gene Set Enrichment Analysis (GSEA) was performed as described elsewhere [Subramanian A. et al. Proc. Natl. Acad. Sci. (2005) 102, 15545-15550] with the following parameters: 1000 gene set permutations, weighted enrichment statistics, minimal gene set size of 5, and signal-to-noise metric. Enrichment of pathways was tested using the Reactome (v3.0) and the KEGG (v3.0) database from the Molecular Signature Database (MSigDB). Heatmaps were carried out with Mayday 2.8 [Battke F. et al. BMC Bioinformatics (2012), 11, 121]. […]

foam cells [6] = assay: microarray genome-wide gene expression and GSEA in foam cells; type: cell-based, human; conditions: 10 µM
Protocol: Microarray analyses were performed according to instructions of Illumina's TotalPrep RNA Amplification Kit followed by hybridisation on HumanHT-12 v3 or HumanHT-12 v4 Expression BeadChips (illumina). Data analysis was performed with GenomeStudio […].1 (illumina). Differential expression analysis was performed on background-subtracted data with cubic spline normalization and Benjamini-Hochberg FDR correction. […] Gene expression data were submitted in MIAME-compliant form to the NCBI Gene Expression Omnibus database (GSE39079). Bead array data were validated by quantitative real-time PCR. The Gene Distance Matrix was conducted in Euclidean space using the MeV 4.3 software tool [[…]. et al. Biotechniques (2003), 34, 374-378]. Gene Set Enrichment Analysis (GSEA) was performed as described elsewhere [Subramanian A. et al. Proc. Natl. Acad. Sci. […] Enrichment of pathways was tested using the Reactome (v3.0) and the KEGG (v3.0) database from the Molecular Signature Database (MSigDB). Heatmaps were carried out with […]. et al. BMC Bioinformatics (2012), 11, 121]. For presentation of treatment effects in the heatmap, the pathway normalized enrichment score (NES) was adjusted with the appropriate FDR as follows: adjustedNES = (1-FDR) x NES.

foam cells [7] = assay: cholesterol content in foam cells (Amplex Red Cholesterol Assay); type: cell-based, human; conditions: 10 µM, 48 h
Protocol: (§3) THP-1 monocytes were plated out into 24-well plates (Nunc) at a density of 2 x 10^5 cells/well. After differentiation and treatment cells were lysed with 100 µL lysis buffer (PBS, 0.25 M NaCl, 1% Triton X-100). Total and free cholesterol were determined using the colorimetric enzymatic Amplex Red Cholesterol Assay Kit (Invitrogen). Triglycerides were quantified by Triglyceride Assay Kit (BioVision). For normalisation protein content was determined with Pierce 660 nm Protein Assay Reagent (Thermo Scientific).

foam cells [8] = assay: triglyceride content in foam cells (Triglyceride Assay Kit); type: cell-based, human; conditions: 10 µM, 48 h
Protocol: as §3

macrophages [9] = assay: triglyceride content in macrophages (Triglyceride Assay Kit); type: cell-based, human; conditions: 10 µM, 48 h
Protocol: as §3

SIRT1 = molecular target: T2, SIRT1 (Homo sapiens, UniProt Q96EB6); assay: MALDI-TOF MS deacetylation assay; type: biochemical
T2 construct: purchased Biomol International, Inc. / Enzo Life Sciences / BlueSky BioTech
T2 sequence (Q96EB6 1-747): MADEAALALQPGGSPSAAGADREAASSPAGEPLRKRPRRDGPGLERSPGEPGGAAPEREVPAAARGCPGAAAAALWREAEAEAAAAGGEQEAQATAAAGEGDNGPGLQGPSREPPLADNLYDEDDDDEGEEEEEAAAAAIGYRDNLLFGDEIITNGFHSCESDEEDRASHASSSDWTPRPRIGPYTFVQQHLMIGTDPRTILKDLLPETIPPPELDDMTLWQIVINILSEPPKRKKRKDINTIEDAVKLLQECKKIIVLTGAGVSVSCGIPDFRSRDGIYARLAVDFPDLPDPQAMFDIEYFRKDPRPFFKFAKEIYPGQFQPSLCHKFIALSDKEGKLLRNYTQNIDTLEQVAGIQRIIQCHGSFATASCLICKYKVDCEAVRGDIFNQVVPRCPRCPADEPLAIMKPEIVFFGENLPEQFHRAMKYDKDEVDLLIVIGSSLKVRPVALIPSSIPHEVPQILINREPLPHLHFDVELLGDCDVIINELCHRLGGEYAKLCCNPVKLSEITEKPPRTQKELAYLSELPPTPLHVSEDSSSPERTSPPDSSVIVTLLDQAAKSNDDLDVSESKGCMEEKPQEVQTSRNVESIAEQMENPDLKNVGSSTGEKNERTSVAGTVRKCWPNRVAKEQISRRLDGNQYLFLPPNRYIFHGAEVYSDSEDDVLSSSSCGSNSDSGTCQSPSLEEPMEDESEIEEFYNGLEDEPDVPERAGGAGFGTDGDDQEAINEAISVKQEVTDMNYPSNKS
Protocol: The assay was performed in a 20 µL reaction. 0.5 µM acetylated peptide and 120 µM NAD^+ in reaction buffer (50 mM Tris-acetate (pH 8), 137 mM NaCl, 2.7 mM KCI, 1 mM MgCl2, 5 mM DTT, 0.05 % BSA) were mixed with compound or DMSO (VC). Reactions were initiated by adding 10 nM of SIRT1. After incubation for 30 min at 37°C, reactions were stopped by formic acid and nicotinamide (f.c. 1% and 5 mM, respectively). Reactions were performed with histone H4 peptide and 1% DMSO unless stated otherwise. […]
Acetylated and deacetylated peptides were mixed at different ratios in the respective buffer including stop solution and reaction components except the enzyme. Purification, preparation and MS detection were conducted in parallel to reaction samples. CCs were generated for IC50 value determination but not for the screening.
Peptides were purified by Oasis HLB µElution Plates using a vacuum manifold [S. Sauer et al. J Chromatogr A (2004), 1049, 9-16]. Plate columns were conditioned by 70% ACN and equilibrated with 0.1% TFA. Samples were loaded, desalted by 0.1 % TFA and H2O and eluted in 70% ACN.
For ultra thin layer (UTL), supernatant of saturated CHCA in ACN / H2O (2:1) and 0.1% TFA. was mixed with isopropanol (1:3) and was spread on a ground steel target. After solvent evaporated excess of CHCA was removed from target surface with a tissue [D. Fenyo et al. J Vis Exp (2007), 192]. The matrix used for sample preparation contained saturated CHCA in ACN / 0.1% TFA (1:2) or ACN / H2O (1:2) depending on peptide size [S. L. Cohen et al. Anal Chem (1996), 68, 31-37]. HLB eluted samples and matrix were mixed (1:4) and spotted on the UTL.
Samples were measured automatically (AutoXecute software, Bruker Daltonik GmbH) using an ultraflex II MALDI-TOF mass spectrometer (Bruker Daltonik GmbH) in positive ion reflector mode. Laser power and detector gain were adjusted prior to every automatic run, which were performed in random walk movement.
For assay optimization and IC50 determination, 1000 shots were accumulated in 100 satisfactory shot steps (fuzzy control). At least one peak within a defined mass range had to fulfill the following criteria for the spectra to be accumulated: Absolute (min.) intensity: 800; S/N: 15; peak width: 0.2.
A script (Bruker Daltonik GmbH) was employed to analyze peptide peaks in a batch process (flexAnalysis software, Version 3.0, Bruker Daltonik GmbH). Percentage of de-/acetylation were calculated using the sum of the first four monoisotopic peak intensities. CC was generated by plotting experimental vs. calculated peptide acetylation. Measured sample values were interpolated with CC to determine de-/acetylation values (GraphPad Prism). When no CC was created, peak intensity ratios were generated. Verified single NP screening hits had to pass a peak ratio of ≤ 0.1 (deac/ac).
As IC50 values were not gained at initial velocity conditions, values were corrected by a conversion factor according to Wu et al. (Table 5) [G. Wu et al. J Biomol Screen (2003), 8, 694-700].

HepG2 cells = assay: Western-Blot analysis of p53 (Lys382) acetylation in HepG2 cells; type: cell-based, human; conditions: 30 µM, 16 hours, 20 µM Etoposide
Protocol: HepG2 cells were seeded in 6-well plates (2.5 x 10^5 cells/well). 48 h later cells were treated with 20 µM Etoposide to induce p53 acetylation and directly afterwards with NP 1 or DMSO (VC) for 16 h. Cells were harvested and separated into cytosolic and nuclear fractions (NE-PER Nuclear and Cytoplasmic Extraction Reagents). Samples were denatured and SDS-PAGE was performed using NuPAGE Novex 4-12% Bis-Tris Gels. Proteins were blotted on nitrocellulose Hybond ECL membrane. Primary antibodies used were β-actin, p53 and acetyl-p53 (Lys382). Secondary antibodies were HRP-conjugated goat anti-rabbit IgG-HRP and goat anti-mouse IgG-HRP. Detection was performed with Western Lightning Plus-ECL solution. Membranes were stripped with Restore Plus Western Blot Stripping Buffer for 15 min.
Densitometry was performed in GelAnalyzer 2010a, which is a software tool to quantitatively measure the optical density. It provides accurate Western-Blot analysis and helps to detect differences which are not visible by the naked eye. Log(p53-Ac/p53-total) was calculated for every sample and statistical analysis was performed.

Row | SMILES | Efficacy ([1]; +DMSO, reporter gene transcription vs. T09) | specificity LXRα vs. LXRβ ([1]; reporter-gene assays with LXRα and LXRβ LBD) | no cytotoxic effects / no reduction of cellular viability up to (THP-1 macrophages [2]) | expression of LXRα target genes (LXRα, SREBF1, ABCA1, APOE) (THP-1 macrophages [3]) | gene expression of LXRα and ABCA1 after LXRα/β knockdown (foam cells [4]) | expression of genes involved in lipid metabolism processes (macrophages [5]) | Lipid metabolism processes (gene set enrichment) (foam cells [6]) | triacylglyceride biosynthesis (transcriptional regulation) (foam cells [6]) | total and esterified cholesterol content (foam cells [7]) | triglyceride levels (foam cells [8]) | triglyceride level (macrophages [9]) | IC50 (SIRT1; Table 3, corrected values (see Table 5), read-out: IC50 values) | IC50 (SIRT1; corrected by conversion factor according to Wu et al., read-out: Corrected IC50) | IC50 (SIRT1; uncorrected, not at initial velocity conditions, read-out: Obtained IC50') | p53 acetylation in the nuclear fraction (HepG2 cells)
1 | O=S(=O)(c1ccccc1)N(CC(F)(F)F)c1ccc(C(O)(C(F)(F)F)C(F)(F)F)cc1 [T09, reference compound] | 100% | bound to LXRα and LXRβ with similar affinity | no cytotoxic effects | increased expression of LXRα target genes | significant reduction of LXRα and ABCA1 expression | activated | comparably up-regulated | transcriptionally induced | significant reduction of total and esterified cholesterol content | increased triglyceride levels | stayed unchanged | – | – | – | –
2 | COc1cc(-c2ccc(O)cc2)c(OC)c(O)c1C1=CC(=O)OC1CC(=O)O (stereo not drawn) [NP 1, 2-(3-(3,4'-dihydroxy-2,5-dimethoxybiphenyl-4-yl)-5-oxo-2,5-dihydrofuran-2-yl)acetic acid] | – | – | – | – | – | – | – | – | – | – | – | 9.7 ± 0.7 µM | 9.7 ± 0.7 µM | 13 ± 1 µM | significant increase of p53 acetylation
